This assay deals with E. coli WT-GFP vs G2058-humanized RFP, fluorescence, 24 h. The assay can be described thus: growth inhibition of wild-type GFP E. coli versus G2058-humanized strain, dose response, G2058 mutant RFP vs wild-type GFP, cherry-pick, two tests (AID 1035470).
Where [1] appears, read: E. coli WT-GFP vs G2058-humanized RFP mixed culture, total growth OD600, 24 h.
[2] abbreviates: measured here: G2058 humanized mutant RFP growth.

This passage reports AC50 results from PubChem BioAssay AID1035470 (Broad Institute, 2014).

Records with an inconclusive call do not appear. The source made the active and inactive calls.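 Rule for the calls: active = compound lowering the normal-ribosome reporter at least twice as much as the humanized-ribosome reporter, growth loss under a set limit; inconclusive = no clear call, values can overlap the other calls; inactive = the rest.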

As to `Cc1cc(C)nc(SCc2cn3c(C)cccc3n2)n1`, the AC50 was > 100 µM (inactive). This compound returned a concentration at half-maximal activity (AC50) under setting [1] greater than 100 µM. As to `CCOc1ccc2nc(SCC(=O)Nc3nonc3C)[nH]c2c1`, the AC50 was > 100 µM (inactive).

As to `COc1ccc(-c2cn3c(C)c(C(=O)Nc4cccc(C)n4)sc3n2)cc1`, the AC50 is > 100 µM (inactive). The same compound registered an AC50 under setting [1] greater than 100 µM. Regarding `CCCC(=O)Nc1sc2c(c1C(=O)Nc1ccccn1)CCCC2`, the AC50 was > 100 µM (inactive). Besides, the AC50 under setting [1] is greater than 100 µM. The compound `CCC1CCCCN1C(=O)CSc1nnc(-c2cccc(Cl)c2)o1` (stereo unspecified) returned an AC50 under setting [1] greater than 100 µM. Still for that read-out and setting: with `Fc1ccc(-c2nc3ccc(Cl)cn3c2Cc2cccc(Cl)c2)cc1` the figure was greater than 100 µM. Regarding `COc1cccc(-c2ccc(NC(=O)C3CCCN(Cc4cnn(C(C)C)c4)C3)cc2)c1` (stereo unspecified), the AC50 is > 100 µM (inactive). The same measure, in the same setting: with `Cn1nc(C(C)(C)C)c([N+](=O)[O-])c1C(=O)Nc1ccc(Br)cc1` the figure was > 100 µM (inactive). For `O=C(Nc1ccc(C(=O)Nc2ccccc2Cl)cc1)c1cccnc1`, the AC50 was > 100 µM (inactive). The same compound gave an AC50 under setting [2] of 8.17 µM.

In the case of `Cc1ccc(SCC(=O)Nc2ccc(S(=O)(=O)Nc3nccs3)cc2)cc1`, the AC50 is > 100 µM (inactive). The compound also displayed an AC50 under setting [1] greater than 100 µM.

On to `Cc1ccc(C(=O)Nc2ccc3ncccc3c2)cc1`, for which the AC50 was > 100 µM (inactive). On to `O=C(COC(=O)C1CC1)Nc1nc(-c2ccc(F)c(F)c2)cs1`, for which the AC50 under setting [1] was greater than 100 µM.

`Cc1ccc(C)c(N2CCN(C(=O)CCS(=O)(=O)c3ccc4c(c3)oc(=O)n4C)CC2)c1` gave an AC50 under setting [1] greater than 100 µM. As for `CCOC(=O)c1ccc(NC(=O)COc2ccc(CNCCO)cc2OCC)cc1`, the AC50 is > 100 µM (inactive). On the same count and under the same terms, the figure for `CCOc1ccc2nc(N(CCN(C)C)C(=O)c3ccc4ccccc4c3)sc2c1` is > 100 µM (inactive); for `CCCCc1ccc(S(=O)(=O)Nc2ccc(C)c(NS(C)(=O)=O)c2)cc1` it is > 100 µM (inactive). `Cc1ccn2cc(-c3cccc(NC(=O)c4cccs4)c3)nc2c1`: the AC50 was > 100 µM (inactive). Under setting [1], this compound had an AC50 greater than 100 µM. The compound `O=C(COC(=O)CNC(=O)c1ccc(F)cc1)Nc1cccc(S(=O)(=O)N2CCCC2)c1` returned an AC50 under setting [1] greater than 100 µM. Consider `O=C(Nc1cccc(Cl)c1)N1C[C@@H]2[C@H](c3ccccc31)[C@@H](CO)N2C(=O)c1cccnc1`, for which the AC50 under setting [2] is greater than 100 µM. For the compound `COc1ccc(OC2C(=O)N(Cc3ccc4c(c3)OCO4)C2c2sccc2C)cc1` (stereo unspecified), the AC50 is > 100 µM (inactive). This compound also had an AC50 under setting [1] greater than 100 µM.

As for `CCN(CC)C(=O)c1sc2nc(-c3ccccc3)ccc2c1N`, the AC50 was > 100 µM (inactive). Also, the AC50 under setting [2] was greater than 100 µM. As for `Cc1cc(C(=O)NCCC2=CCCCC2)ccc1[N+](=O)[O-]`, the AC50 is > 100 µM (inactive). Besides, under setting [1], the half-maximal activity concentration (AC50) was greater than 100 µM.

For `CCOCCCNC(=O)C(NC(=O)c1ccccc1O)c1ccc(C)cc1` (stereo unspecified), under setting [1], the concentration at half-maximal activity (AC50) is greater than 100 µM. Take `O=C(Nc1ccc2nc(-c3ccccc3)[nH]c2c1)c1cccs1`: the AC50 is > 100 µM (inactive). The half-maximal activity concentration (AC50) under setting [1] is 51.4 µM. On to `CN1C(=O)c2cccc3c(S(=O)(=O)NCCc4ccccc4)ccc1c23`, for which the AC50 was > 100 µM (inactive). Further, the AC50 under setting [1] was greater than 100 µM. As for `CC(C)(C)C1CCC(C(=O)OCC(=O)N2CCN(C(=O)c3ccco3)CC2)CC1` (stereo unspecified), the AC50 is > 100 µM (inactive). In turn, `O=[N+]([O-])c1ccc(N2CCOCC2)c2c1no[n+]2[O-]` gave an AC50 under setting [2] of 0.638 µM.

In the case of `CSc1ccccc1C(=O)NCCc1ccc(S(=O)(=O)N2CCCCC2)cc1`, the AC50 is > 100 µM (inactive). Still for that read-out and setting: with `Nc1c(C(=O)NCCN2CCOCC2)c2nc3ccccc3nc2n1Cc1ccccc1` the figure was > 100 µM (inactive). As for `CCOc1ccccc1C(=O)NCC(=O)OCCOc1cccc(Cl)c1`, under setting [2], the AC50 is greater than 100 µM. Turning to `CCCc1nc2oc3c(NCCCN(C)C)ncnc3c2c2c1CCCC2`, the AC50 is > 100 µM (inactive). Under setting [1], this compound registered an AC50 greater than 100 µM.

The compound `COc1cccc(NC(=O)c2ccc(NCCCN3CCC(C)CC3)c([N+](=O)[O-])c2)c1` had an AC50 under setting [2] of 28.4 µM.

With `Cc1cc2nc(SCC(=O)O)nc(C)c2cc1C`, the AC50 is > 100 µM (inactive). Further, the AC50 under setting [1] was greater than 100 µM. For `O=C(Nc1ccc(F)c(Cl)c1)C1CC2CCC1C2` (stereo unspecified), the AC50 is > 100 µM (inactive).

`COc1ccc(CNc2ncnc3cc(OC)c(OC)cc23)cc1OC`: the AC50 was > 100 µM (inactive). Moreover, the AC50 under setting [1] is greater than 100 µM. For the compound `COc1cc2cc(C(=O)Nc3ccc4c(c3)OCCO4)[nH]c2cc1OC`, the AC50 is > 100 µM (inactive). For `O=C(COC(=O)c1ccc([N+](=O)[O-])o1)NC12CC3CC(CC(C3)C1)C2`, the AC50 is > 100 µM (inactive). Regarding `O=C1c2ccccc2CSc2c(O)cccc21`, the AC50 is > 100 µM (inactive). Same read-out and setting: with `N#CCC(=O)Nc1ccc(C(=O)OCC(=O)Nc2ccc3ccccc3c2)cc1` the figure was > 100 µM (inactive); with `Cc1c(C(=O)O)oc2ccc(S(=O)(=O)NC3CCCCCCC3)cc12`, > 100 µM (inactive).

Consider `CC(C)(C)C1CCC(OC(=O)C[N+]2(C)CCCCC2)CC1` (stereo unspecified), for which the AC50 was > 100 µM (inactive). Besides, the AC50 under setting [1] is greater than 100 µM.

Take `COc1ccc2c(c1)c1ncn(Cc3ccccn3)c(=O)c1n2C`: the AC50 was > 100 µM (inactive). Also, the AC50 under setting [1] is greater than 100 µM.

Consider `O=C(c1ccc(Cl)cc1)N1CCN(c2cccc3[nH]ccc23)CC1`, for which the AC50 was > 100 µM (inactive). The compound further had an AC50 under setting [1] greater than 100 µM. For the compound `CCN(CC)S(=O)(=O)c1cc(NC(=O)C(C)N2CCN(Cc3ccc4c(c3)OCO4)CC2)ccc1C` (stereo unspecified), the AC50 was > 100 µM (inactive). Under setting [2], this compound registered an AC50 greater than 100 µM. Regarding `O=c1[nH]c(C2CCCN(S(=O)(=O)c3ccccc3Cl)C2)nc2c1nnn2Cc1ccc2c(c1)OCCO2` (stereo unspecified), the AC50 was > 100 µM (inactive).

Turning to `Cc1ccc(NS(=O)(=O)c2ccc3c(c2)CCC(=O)N3)cc1C`, the AC50 was > 100 µM (inactive). The same compound showed an AC50 under setting [1] greater than 100 µM.

As to `Cc1cc(C(=O)Nc2cccc3c2O[C@H](CN(C)S(=O)(=O)c2ccc(Cl)cc2)[C@H](C)CN([C@H](C)CO)C3=O)n(C)n1`, the AC50 was > 100 µM (inactive). The same compound came in with a half-maximal activity concentration (AC50) under setting [2] of 32.9 µM.

Turning to `Cc1ccc(S(=O)(=O)N2CCOCC2)cc1NC(=O)COc1ccc(-c2nnco2)cc1`, the AC50 was > 100 µM (inactive). Consider `COc1ccccc1N1CCN(Cc2ccc(OC)c3ccccc23)CC1`, for which the AC50 under setting [1] was greater than 100 µM. As to `Cc1nn(CC(=O)OCCOc2ccc(Br)cc2)c(C)c1[N+](=O)[O-]`, the AC50 was > 100 µM (inactive).

With `O=C(c1ccccc1)C1Oc2ccccc2C2CC(c3cccs3)=NN12` (stereo unspecified), the AC50 was > 100 µM (inactive). As for `COCC#Cc1ccc2c(c1)O[C@H](CN(C)C(=O)c1ccccc1)[C@@H](C)CN([C@H](C)CO)S2(=O)=O`, the AC50 under setting [1] was greater than 100 µM. For the compound `CCOc1cc(/C=C(\CC(=O)O)c2nc3ccccc3s2)ccc1OC`, the AC50 was > 100 µM (inactive).

Turning to `O=S1(=O)N[C@H](Cc2ccccc2)COc2cc(N3CCSCC3)ccc21`, the half-maximal activity concentration (AC50) under setting [1] was greater than 100 µM. For the compound `O=C(COC(=O)C1CC2C=CC1C2)Nc1ccc([N+](=O)[O-])cc1` (stereo unspecified), the AC50 is greater than 100 µM under setting [1] and greater than 100 µM under setting [2]. For `CN(C)S(=O)(=O)N1CCN(c2ccccc2Cl)CC1`, the AC50 was > 100 µM (inactive). The compound also yielded an AC50 under setting [1] greater than 100 µM.

In the case of `COC(=O)CNC(=O)COC(=O)c1ccc(Cl)nc1`, under setting [1], the AC50 is greater than 100 µM. `N#Cc1ccc(OCC(=O)N2CCN(S(=O)(=O)c3ccc(Cl)s3)CC2)cc1`: the AC50 is > 100 µM (inactive). For the compound `O=C1CSC(c2cccnc2)N1Cc1ccc(Cl)c(Cl)c1` (stereo unspecified), the AC50 under setting [1] was greater than 100 µM. For the compound `CCCCn1c(=O)[nH]c(=O)c2c1nc(-c1ccccc1F)n2Cc1ccccc1`, the AC50 is > 100 µM (inactive). Besides, the AC50 under setting [1] was greater than 100 µM. Take `COc1ccc(-c2nc(NC(C)=O)sc2-c2ccccc2)cc1`: the AC50 was > 100 µM (inactive). Take `COc1ccc(Oc2ccc(C(F)(F)F)cc2NC(=O)CC(CC(=O)O)c2ccccc2)cc1` (stereo unspecified): the AC50 was > 100 µM (inactive). Under setting [1], the AC50 was greater than 100 µM. With `CCOC(=O)c1cc(-c2ccc(OC)cc2)n[nH]1`, the AC50 was > 100 µM (inactive).

Under setting [1], `CCOC(=O)c1cccc(OS(=O)(=O)Cc2ccccc2)c1` displayed a half-maximal activity concentration (AC50) greater than 100 µM. Take `Cc1nc(N2CCC(C)CC2)c(C#N)c(C)c1[N+](=O)[O-]`: the AC50 is > 100 µM (inactive). As for `Cc1nc(C)c(-c2ccn(S(=O)(=O)c3ccc(Cl)cc3)n2)o1`, the AC50 is > 100 µM (inactive). `O=C(O)CCn1c(SCc2cccc3ccccc23)nc2ccccc21`: the AC50 was > 100 µM (inactive). In addition, the AC50 under setting [1] was greater than 100 µM. For `CNC(=O)C[C@H]1CC[C@@H]2[C@@H](COc3ccc(NC(=O)Nc4ccc(F)c(F)c4)cc3C(=O)N2C)O1`, the AC50 was > 100 µM (inactive). Still for that read-out and setting: with `COc1ccc(-c2nc3c(C)cc(Br)cn3c2Cc2ccc(C)cc2)cc1OC` the figure was > 100 µM (inactive). For the compound `O=C(NCc1ccc2c(c1)OCO2)c1sccc1Br`, the AC50 is > 100 µM (inactive). The AC50 under setting [1] was greater than 100 µM. Take `CC(C(=O)Nc1nc2ccccc2s1)n1cc([N+](=O)[O-])cn1` (stereo unspecified): the AC50 was > 100 µM (inactive). In addition, the AC50 under setting [1] was greater than 100 µM. Under setting [2], the AC50 is greater than 100 µM.

Regarding `COc1cccc(NC(=O)CSc2nc3c(sc4ccccc43)c(=O)n2CCN(C)C)c1`, the AC50 is > 100 µM (inactive). Still for that read-out and setting: with `Cc1ncoc1C(=O)NCCC(c1ccccc1)c1ccccc1` the figure was > 100 µM (inactive). As to `COC(=O)c1sc(C(C)(C)C)cc1CS(=O)(=O)c1ccc(Cl)cc1`, the AC50 was > 100 µM (inactive). In addition, the half-maximal activity concentration (AC50) under setting [1] is greater than 100 µM. As to `O=C(CSCc1c(Cl)cccc1Cl)NCc1ccccn1`, the AC50 was > 100 µM (inactive). Regarding `C[C@H]1CN([C@@H](C)CO)C(=O)CCCn2nncc2CO[C@@H]1CN(C)Cc1ccccc1C(F)(F)F`, the AC50 reads like this: under setting [1], greater than 100 µM; under setting [2], 6.94 µM.
